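A five-concentration, 48-hour dose response in 96-well plates underlies each endpoint, interpolated linearly between surrounding concentrations. GI50 is the concentration that inhibits growth by half. At the TGI there is no net growth.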
Legend:
Assay in all cases: NCI-60 cell line screen, 48 h
786-0 renal = test system: 786-0 renal
A498 renal = test system: A498 renal
CAKI-1 renal = test system: CAKI-1 renal
HCC-2998 colon = test system: HCC-2998 colon
HOP-62 NSCLC = test system: HOP-62 NSCLC
MALME-3M melanoma = test system: MALME-3M melanoma
SF-295 CNS = test system: SF-295 CNS
SK-MEL-2 melanoma = test system: SK-MEL-2 melanoma
SK-MEL-28 melanoma = test system: SK-MEL-28 melanoma
RXF 393 renal = test system: RXF 393 renal

NCCCN1CCN(CCCNc2ccc3ncn4c5ccccc5c(=O)c2c34)CC1
TGI (786-0 renal): 24 µM
TGI (A498 renal): 5.63 µM
TGI (CAKI-1 renal): 9.02 µM
TGI (HCC-2998 colon): 2.93 µM
TGI (HOP-62 NSCLC): > 25 µM
TGI (MALME-3M melanoma): 6.27 µM
TGI (SF-295 CNS): 15.7 µM
TGI (SK-MEL-2 melanoma): 13.3 µM
TGI (SK-MEL-28 melanoma): 19.6 µM

CCC[CH2][Ge]([CH2]CCC)([CH2]CCC)[O]C(=O)CCl
GI50 (CAKI-1 renal): 5.26 µM
TGI (CAKI-1 renal): 20.3 µM
GI50 (HCC-2998 colon): 1.32 µM
TGI (HCC-2998 colon): 7.63 µM
GI50 (HOP-62 NSCLC): 1.89 µM
TGI (HOP-62 NSCLC): 9.23 µM
GI50 (MALME-3M melanoma): 1.14 µM
TGI (MALME-3M melanoma): 12.5 µM
GI50 (RXF 393 renal): 0.612 µM
TGI (RXF 393 renal): 3.56 µM
GI50 (SK-MEL-2 melanoma): 3.59 µM
TGI (SK-MEL-2 melanoma): 19.7 µM
GI50 (SK-MEL-28 melanoma): 11.5 µM
TGI (SK-MEL-28 melanoma): 23.6 µM

CCCCC[C@@H]1OC(=O)[C@@]2(CC3c4ccccc4C2c2ccccc23)[C@H]1C(=O)OC
TGI (786-0 renal): > 100 µM
TGI (A498 renal): 82.5 µM
TGI (CAKI-1 renal): > 100 µM
TGI (HCC-2998 colon): > 100 µM
TGI (HOP-62 NSCLC): > 100 µM
TGI (MALME-3M melanoma): > 100 µM
TGI (RXF 393 renal): > 100 µM
TGI (SF-295 CNS): > 100 µM
TGI (SK-MEL-2 melanoma): > 100 µM

CC1Oc2c(c(O)cc3oc(=O)cc(-c4ccccc4)c23)C(=O)C1C (configuration not stated)
TGI (A498 renal): > 100 µM
TGI (CAKI-1 renal): > 100 µM
TGI (MALME-3M melanoma): > 100 µM
TGI (SF-295 CNS): > 100 µM
TGI (SK-MEL-2 melanoma): > 100 µM
TGI (SK-MEL-28 melanoma): > 100 µM

COc1ccc(C2=C(N)c3ccccc3C2=O)cc1
TGI (786-0 renal): > 100 µM
TGI (A498 renal): > 100 µM
TGI (CAKI-1 renal): > 100 µM
TGI (HCC-2998 colon): > 100 µM
TGI (HOP-62 NSCLC): > 100 µM
TGI (MALME-3M melanoma): > 100 µM
TGI (SF-295 CNS): > 100 µM
TGI (SK-MEL-2 melanoma): > 100 µM
TGI (SK-MEL-28 melanoma): > 100 µM

Fc1ccccc1C1SCC2=Nc3ccccc3CN21 (configuration not stated)
TGI (786-0 renal): > 100 µM
TGI (A498 renal): > 100 µM
TGI (CAKI-1 renal): > 100 µM
TGI (HCC-2998 colon): > 100 µM
TGI (HOP-62 NSCLC): > 100 µM
TGI (RXF 393 renal): > 100 µM
TGI (SF-295 CNS): > 100 µM
TGI (SK-MEL-2 melanoma): > 100 µM
TGI (SK-MEL-28 melanoma): > 100 µM

CN1C(C(=O)Nc2ccccn2)=C(O)c2ccccc2S1(=O)=O
TGI (786-0 renal): > 100 µM
TGI (CAKI-1 renal): > 100 µM
TGI (HOP-62 NSCLC): > 100 µM
TGI (MALME-3M melanoma): > 100 µM
TGI (RXF 393 renal): > 100 µM
TGI (SF-295 CNS): > 100 µM
TGI (SK-MEL-2 melanoma): > 100 µM
TGI (SK-MEL-28 melanoma): > 100 µM

CC1=NN(C(=O)Cc2ccccc2)C(=O)/C1=C\c1cccc(O)c1
TGI (786-0 renal): > 100 µM
TGI (CAKI-1 renal): > 100 µM
TGI (HCC-2998 colon): > 100 µM
TGI (HOP-62 NSCLC): > 100 µM
TGI (MALME-3M melanoma): > 100 µM
TGI (SF-295 CNS): > 100 µM
TGI (SK-MEL-2 melanoma): > 100 µM
TGI (SK-MEL-28 melanoma): > 100 µM

N#Cc1nc(Cc2cccs2)oc1N
TGI (786-0 renal): > 100 µM
TGI (A498 renal): > 100 µM
TGI (CAKI-1 renal): > 100 µM
TGI (HOP-62 NSCLC): > 100 µM
TGI (RXF 393 renal): > 100 µM
TGI (SK-MEL-2 melanoma): > 100 µM
TGI (SK-MEL-28 melanoma): > 100 µM

C=C1C(=O)OC2C1CC1OC2C(C)CCC/C(C)=C\CCC1(C)O (configuration not stated)
TGI (A498 renal): 60.3 µM
TGI (CAKI-1 renal): 61.4 µM
TGI (HCC-2998 colon): 63.5 µM
TGI (HOP-62 NSCLC): > 65.9 µM
TGI (MALME-3M melanoma): 80.6 µM
TGI (RXF 393 renal): 17.9 µM
TGI (SF-295 CNS): 85.2 µM
TGI (SK-MEL-2 melanoma): 32.7 µM
TGI (SK-MEL-28 melanoma): 43.1 µM

Cn1c(=O)n2n(c1=O)C1C(=CC2)C2C=CC1n1c(=O)n(C)c(=O)n12 (configuration not stated)
TGI (786-0 renal): > 100 µM
TGI (A498 renal): > 100 µM
TGI (CAKI-1 renal): > 100 µM
TGI (HOP-62 NSCLC): > 100 µM
TGI (MALME-3M melanoma): > 100 µM
TGI (RXF 393 renal): > 100 µM
TGI (SF-295 CNS): > 100 µM
TGI (SK-MEL-2 melanoma): > 100 µM
TGI (SK-MEL-28 melanoma): > 100 µM

Cc1ccc(Oc2cc(C)ccc2P(=O)(O)O)cc1
TGI (786-0 renal): > 100 µM
TGI (CAKI-1 renal): > 100 µM
TGI (HCC-2998 colon): > 100 µM
TGI (HOP-62 NSCLC): > 100 µM
TGI (RXF 393 renal): > 100 µM
TGI (SF-295 CNS): > 100 µM
TGI (SK-MEL-2 melanoma): > 100 µM
TGI (SK-MEL-28 melanoma): > 100 µM

OCC(CO)CC1COc2ccccc2O1 (configuration not stated)
TGI (A498 renal): > 10 µM
TGI (CAKI-1 renal): > 10 µM
TGI (HCC-2998 colon): > 10 µM
TGI (HOP-62 NSCLC): > 10 µM
TGI (MALME-3M melanoma): > 10 µM
TGI (RXF 393 renal): > 10 µM
TGI (SF-295 CNS): > 10 µM
TGI (SK-MEL-2 melanoma): > 10 µM
TGI (SK-MEL-28 melanoma): > 10 µM

CC(C)(CN1CCCCC1)C(=O)CC(SCCS(=O)(=O)O)c1ccc(Cl)c(Cl)c1 (configuration not stated)
TGI (786-0 renal): 3.4 µM
TGI (A498 renal): 12.9 µM
TGI (CAKI-1 renal): 12.9 µM
TGI (HCC-2998 colon): 26.2 µM
TGI (HOP-62 NSCLC): 18.7 µM
TGI (MALME-3M melanoma): 22.1 µM
TGI (RXF 393 renal): 11.2 µM
TGI (SF-295 CNS): 15.8 µM
TGI (SK-MEL-2 melanoma): 57.3 µM

C#Cc1ccccc1C(=O)OC
TGI (A498 renal): > 100 µM
TGI (HCC-2998 colon): > 100 µM
TGI (HOP-62 NSCLC): > 100 µM
TGI (MALME-3M melanoma): > 100 µM
TGI (RXF 393 renal): > 100 µM
TGI (SF-295 CNS): > 100 µM
TGI (SK-MEL-2 melanoma): > 100 µM
TGI (SK-MEL-28 melanoma): > 100 µM

Brc1ccc2[nH]cc(-c3nc(-c4c[nH]c5ccncc45)cs3)c2c1
GI50 (A498 renal): 1.81 µM
TGI (A498 renal): 3.22 µM
GI50 (HCC-2998 colon): 1.98 µM
TGI (HCC-2998 colon): 3.6 µM
GI50 (MALME-3M melanoma): 2.14 µM
TGI (MALME-3M melanoma): 3.72 µM
GI50 (RXF 393 renal): 1.49 µM
TGI (RXF 393 renal): 2.87 µM
GI50 (SF-295 CNS): 1.71 µM
TGI (SF-295 CNS): 3.14 µM
GI50 (SK-MEL-2 melanoma): 1.92 µM
TGI (SK-MEL-2 melanoma): 3.72 µM
GI50 (SK-MEL-28 melanoma): 1.73 µM
TGI (SK-MEL-28 melanoma): 3.13 µM

COc1ccc(CNc2cnc3cc(N)ccc3n2)cc1OC
TGI (786-0 renal): > 100 µM
TGI (CAKI-1 renal): > 100 µM
TGI (HCC-2998 colon): > 100 µM
TGI (HOP-62 NSCLC): > 100 µM
TGI (MALME-3M melanoma): > 100 µM
TGI (SF-295 CNS): > 100 µM
TGI (SK-MEL-2 melanoma): > 100 µM
TGI (SK-MEL-28 melanoma): > 100 µM

CC1(C)CN=C(c2ccc3ccccc3c2O)N1
TGI (786-0 renal): > 100 µM
TGI (A498 renal): > 100 µM
TGI (CAKI-1 renal): > 100 µM
TGI (HCC-2998 colon): > 100 µM
TGI (HOP-62 NSCLC): > 100 µM
TGI (SF-295 CNS): 9.29 µM
TGI (SK-MEL-2 melanoma): > 100 µM
TGI (SK-MEL-28 melanoma): > 100 µM

C[N+](C)(C)c1nc(N)nc2c1ncn2C1OC(CO)C(O)C1O (configuration not stated)
TGI (786-0 renal): > 100 µM
TGI (A498 renal): > 100 µM
TGI (CAKI-1 renal): > 100 µM
TGI (HCC-2998 colon): > 100 µM
TGI (HOP-62 NSCLC): > 100 µM
TGI (MALME-3M melanoma): > 100 µM
TGI (RXF 393 renal): > 100 µM
TGI (SK-MEL-2 melanoma): > 100 µM
TGI (SK-MEL-28 melanoma): > 100 µM

COc1ccc(N2C(=O)CSC2c2cc(OC)c(OC)c(OC)c2)cc1 (configuration not stated)
TGI (786-0 renal): 48.4 µM
TGI (A498 renal): 55.3 µM
TGI (CAKI-1 renal): 62.7 µM
TGI (HCC-2998 colon): 39.9 µM
TGI (MALME-3M melanoma): 97.7 µM
TGI (SF-295 CNS): 71.9 µM
TGI (SK-MEL-2 melanoma): > 100 µM
TGI (SK-MEL-28 melanoma): > 100 µM

O/N=C1/CCCCC1NO (configuration not stated)
TGI (786-0 renal): > 100 µM
TGI (CAKI-1 renal): > 100 µM
TGI (HCC-2998 colon): > 100 µM
TGI (HOP-62 NSCLC): > 100 µM
TGI (MALME-3M melanoma): > 100 µM
TGI (RXF 393 renal): > 100 µM
TGI (SF-295 CNS): > 100 µM
TGI (SK-MEL-2 melanoma): > 100 µM
TGI (SK-MEL-28 melanoma): > 100 µM

COc1cc(/C=C/C=C2\CC(C)C/C(=C\C=C\c3ccc(O)c(OC)c3)C2=O)ccc1O (configuration not stated)
TGI (786-0 renal): 47.9 µM
TGI (CAKI-1 renal): 33.2 µM
TGI (HCC-2998 colon): > 100 µM
TGI (HOP-62 NSCLC): 37.8 µM
TGI (MALME-3M melanoma): 31.1 µM
TGI (SK-MEL-2 melanoma): > 100 µM
TGI (SK-MEL-28 melanoma): 45.5 µM

Cc1ccc(NC(=O)NC23CC4CC(CC(F)(C4)C2)C3)cc1
TGI (786-0 renal): > 100 µM
TGI (A498 renal): > 100 µM
TGI (HCC-2998 colon): > 100 µM
TGI (HOP-62 NSCLC): > 100 µM
TGI (MALME-3M melanoma): > 100 µM
TGI (RXF 393 renal): > 100 µM
TGI (SK-MEL-2 melanoma): > 100 µM
TGI (SK-MEL-28 melanoma): > 100 µM

From PubChem BioAssay (NCI)
